Reference: ChEMBL document CHEMBL1146439, “Novel mono-tetrahydrofuran ring acetogenins, from the bark of Annona squamosa, showing cytotoxic selectivities for the human pancreatic carcinoma cell line, PACA-2” (J Nat Prod, 1997)
Converted amounts (≈) assume the structure as drawn.

What was measured:
[1] = Toxicity against brine shrimp; format: organism-based; settings: artemia, in vivo
MCF7 = assay: Cytotoxicity against human MCF7 cells after 7 days by MTT assay; format: functional; settings: MCF7, 168 h, read-out: ED50 (the source's name)
A549 = assay: Cytotoxicity against human A549 cells after 7 days by MTT assay; format: functional; settings: A549, 168 h, read-out: ED50 (the source's name)
HT-29 = assay: Cytotoxicity against human HT-29 cells after 7 days by MTT assay; format: functional; settings: HT-29, 168 h, read-out: ED50 (the source's name)
A498 = assay: Cytotoxicity against human A498 cells after 7 days by MTT assay; format: functional; settings: A498, 168 h, read-out: ED50 (the source's name)
PC-3 = assay: Cytotoxicity against human PC3 cells after 7 days by MTT assay; format: functional; settings: PC-3, 168 h, read-out: ED50 (the source's name)
MIA PaCa-2 = assay: Cytotoxicity against human MIAPaCa2 cells after 7 days by MTT assay; format: functional; settings: for EC50: Homo sapiens, MIA PaCa-2, 168 h, read-out: ED50 (the source's name)

CCCCCCCCCCCC[C@H](O)[C@@H]1CC[C@H]([C@H](O)CCCCCC(=O)CCCC[C@@H](O)CC2=C[C@H](C)OC2=O)O1 [MOSIN C]
LC50 [1]: 0.15 µg/mL (≈ 0.252 µM) | EC50 (MCF7): > 1 µg/mL | EC50 (A549): 0.6 µg/mL (≈ 1.01 µM) | EC50 (HT-29): > 1 µg/mL | EC50 (A498): > 1 µg/mL | EC50 (PC-3): > 1 µg/mL | ED50 (MIA PaCa-2): 1.2 ×10⁻⁴ ug/ml

COc1cccc2c1C(=O)c1c(O)c3c(c(O)c1C2=O)C[C@@](O)(C(=O)CO)C[C@@H]3O[C@H]1C[C@H](N)[C@H](O)[C@H](C)O1 [DOXORUBICIN]
LC50 [1]: 0.26 µg/mL (≈ 0.478 µM) | EC50 (MCF7): 0.2 µg/mL (≈ 0.368 µM) | EC50 (A549): 0.0053 µg/mL (≈ 0.00975 µM) | EC50 (HT-29): 0.02 µg/mL (≈ 0.0368 µM) | EC50 (A498): 0.01 µg/mL (≈ 0.0184 µM) | EC50 (PC-3): 0.032 µg/mL (≈ 0.0589 µM) | EC50 (MIA PaCa-2): 0.018 µg/mL (≈ 0.0331 µM)

CCCCCCCCCCCC[C@@H](O)[C@H]1CC[C@H]([C@H](O)CCCCCC(=O)CCCC[C@@H](O)CC2=C[C@H](C)OC2=O)O1
LC50 [1]: 0.41 µg/mL (≈ 0.689 µM) | EC50 (MCF7): > 1 µg/mL | EC50 (A549): 0.27 µg/mL (≈ 0.454 µM) | EC50 (HT-29): > 1 µg/mL | EC50 (A498): > 1 µg/mL | EC50 (PC-3): 0.0096 µg/mL (≈ 0.0161 µM) | ED50 (MIA PaCa-2): 2.4 ×10⁻⁴ ug/ml

CCCCCCCCC/C=C\CC[C@@H](O)[C@H]1CC[C@H]([C@H](O)CCCCCC(=O)CCCC[C@@H]2CC(CC(C)=O)C(=O)O2)O1 (mixture of isomers)
LC50 [1]: 0.44 µg/mL | EC50 (MCF7): > 1 µg/mL | EC50 (A549): > 1 µg/mL | EC50 (HT-29): > 1 µg/mL | EC50 (A498): > 1 µg/mL | EC50 (PC-3): 0.032 µg/mL | EC50 (MIA PaCa-2): 0.0022 µg/mL

CCCCCCCCCCCC[C@H](O)[C@H]1CC[C@H]([C@H](O)CCCCCC(=O)CCCC[C@@H](O)CC2=C[C@H](C)OC2=O)O1 [MOSIN B]
LC50 [1]: 0.29 µg/mL (≈ 0.487 µM) | EC50 (MCF7): > 1 µg/mL | EC50 (A549): 0.94 µg/mL (≈ 1.58 µM) | EC50 (HT-29): > 1 µg/mL | EC50 (A498): > 1 µg/mL | EC50 (PC-3): 0.35 µg/mL (≈ 0.588 µM) | ED50 (MIA PaCa-2): 2.5 ×10⁻⁴ ug/ml
